Experimental findings from patent US20110318266A1, “PHTHALIMIDE DERIVATIVE METABOTROPIC GLUTAMATE R4 LIGANDS” (priority 2008, published 2011) are described below.

Experiment [1] concerns the target T1, mGluR4 (Homo sapiens, UniProt Q14833). Briefly: Fluorescent Plate Imaging Reader (FLIPR) Assay for mGluR4 Potentiators. Further details: expressed in transfected cells. Format: cell-based. Conditions: for Emax: maximal activity relative to response with saturating concentration (10 uM) of agonist L-AP4, read-out: mGlu4 FLIPR % Max Efficacy; for EC50: potentiator response with EC10 concentration of L-AP4 (30 nM), inflection point of the curve, read-out: mGluR4 FLIPR Potency. As for the experimental part:
Cells are grown in Corning T162 cm^2 flasks in DMEM growth media at 37° C. and 5% CO2. Growth media contains: Gibco DMEM supplemented with 10% defined FBS, 1% GlutaMax −1, 1% sodium pyruvate, 1% NEAA, 1% Pen/Strep, 250 ug/ml zeocin, 25 mM HEPES, 0.1% 2-Mercaptoethanol, 600 ug/ml Hygromycin B, 7.5 ug/ml blasticidin, and 5 ug/ml puromycin.
The day prior to the experiment the cells were plated in growth medium (minus glutamine) at 50K cells/well into Becton-Dickinson 384-well PDL-coated plates using a Labsystems Multidrop (0.1 ml/well). The cells are grown overnight at 37° C. and 6% CO2.
The following day, the cells are washed with Assay Buffer at 37° C. using a Skatron EMBLA cell washer (3×100 μl, aspiration 3 mm from bottom will leave 30 μl of buffer in each well). Assay buffer is Hanks balanced salt solution with 20 mM HEPES, 2.5 mM probenecid and 0.1% BSA.
Fluorescent dye, 30 μl of the diluted Fluo-4-AM, is added to each well of the plate. The Fluo-4-AM solution is added to achieve a final concentration in the assay of 2 uM Fluo-4-AM, 0.02% pluronic acid and 1% FBS. The assay plates are placed back into the 6% CO2 incubator and incubated at 37° C. for 60 min. The 384-well plates are washed with Assay Buffer at 37° C. on using a cell washer (3×100 μl, aspiration 3 mm from bottom, will leave 30 μl of buffer in each well). The experimental run is initiated and after 30 sec a dose of test compound is applied. The fluorescent response elicited by test compound is monitored for 5 min, any positive response detected at this stage is attributed to agonist properties of the test compound. At this point an EC10 concentration of the mGluR4 agonist L-AP4 ((S)-2-amino-4-phosphonobutanoate) (final concentration 30 nM) is added and the fluorescent response is monitored for an additional 3 minutes, any positive response detected at this stage is attributed to potentiator properties of the test compound.
Controls for the assay include a no compound control, a positive control which is a saturating concentration, 10 uM, of the agonist L-AP4. A 10 point dose response, with either 2-fold or 3-fold dilution steps, is performed and curve fitting algorithms, suitable for a sigmoidal dose response relationship, are used to fit the data. The inflection point of the curve provides a measure of compound potency.
A comparison of the maximal level of activity achieved for a test compound, relative to the response achieved with a saturating concentration of the agonist L-AP4 provides a measure of compound efficacy.

Experiment [2] deals with T1, mGluR4. The experiment is described as follows: mGluR4 Binding Assay. On the set-up: expressed in transfected cells; host or cells: CHO cells. Conditions: membranes from CHO cells expressing human mGluR4; 20 uM L-AP4; 7 nM radiotracer [3H]-N-(4-{[(2-Chlorophenyl)amino]sulfonyl}phenyl)pyridine-2-carboxamide.
Method: Membranes were prepared from CHO cells expressing the human mGluR4 receptor. Cells were harvested using trypsin and then washed in assay buffer, assay buffer contains 50 mM HEPES, 1 mM EDTA and protease inhibitors (Boehringer Mannheim catalog #1 836 170). Harvested cells were pelleted by centrifugation and stored at −80° C. for a minimum of 12 hours. Cells were resuspended in assay buffer and lysed by a polytron, a low speed spin, 2000×g for 10 min, was used to recover unbroken cells for additional treatment using the polytron. The cleared supernatant from the low speed spins was subjected to a high speed spin, 96,000×g for 1 hour. The membrane pellet from the high speed spin was resuspended in assay buffer and used in the mGluR4 binding assay.
The binding assay follows a standard filtration binding paradigm. The binding buffer consists of 20 mM HEPES, 100 mM NaCl and 3 mM MgCl2, the pH of the buffer is 7.4. The assay is performed in a 96-well format with each well containing test compound, 25 to 50 ug of membrane protein, 20 uM L-AP4, and 7 nM radiotracer, [^3H]—N-(4-{[(2-Chlorophenyl)amino]sulfonyl}phenyl)pyridine-2-carboxamide, which is disclosed in commonly owned U.S. patent application docket no.
The binding reaction is incubated at room temperature for 1 hour, and then is passed through GF/B filter that was presoaked with 0.5% PEI. The cell membranes are collected on the filter and then washed five times with ˜5 ml ice cold binding buffer that contains 0.01% BSA. The washed filter plate is dried for 30 minutes at 37° C., scintillation fluid is added, and the amount of filter bound radioactivity is determined using a TopCount instrument. […] To determine the level of non-specific binding for the radiotracer [^3H]—N-(4-{[(2-Chlorophenyl)amino]sulfonyl}phenyl)pyridine-2-carboxamide, 5 uM of unlabeled [^3H]—N-(4-{[(2-Chlorophenyl)amino]sulfonyl}phenyl)pyridine-2-carboxamide is added to determine the level of non-specific binding. […]

T1 sequence (Q14833 33-912): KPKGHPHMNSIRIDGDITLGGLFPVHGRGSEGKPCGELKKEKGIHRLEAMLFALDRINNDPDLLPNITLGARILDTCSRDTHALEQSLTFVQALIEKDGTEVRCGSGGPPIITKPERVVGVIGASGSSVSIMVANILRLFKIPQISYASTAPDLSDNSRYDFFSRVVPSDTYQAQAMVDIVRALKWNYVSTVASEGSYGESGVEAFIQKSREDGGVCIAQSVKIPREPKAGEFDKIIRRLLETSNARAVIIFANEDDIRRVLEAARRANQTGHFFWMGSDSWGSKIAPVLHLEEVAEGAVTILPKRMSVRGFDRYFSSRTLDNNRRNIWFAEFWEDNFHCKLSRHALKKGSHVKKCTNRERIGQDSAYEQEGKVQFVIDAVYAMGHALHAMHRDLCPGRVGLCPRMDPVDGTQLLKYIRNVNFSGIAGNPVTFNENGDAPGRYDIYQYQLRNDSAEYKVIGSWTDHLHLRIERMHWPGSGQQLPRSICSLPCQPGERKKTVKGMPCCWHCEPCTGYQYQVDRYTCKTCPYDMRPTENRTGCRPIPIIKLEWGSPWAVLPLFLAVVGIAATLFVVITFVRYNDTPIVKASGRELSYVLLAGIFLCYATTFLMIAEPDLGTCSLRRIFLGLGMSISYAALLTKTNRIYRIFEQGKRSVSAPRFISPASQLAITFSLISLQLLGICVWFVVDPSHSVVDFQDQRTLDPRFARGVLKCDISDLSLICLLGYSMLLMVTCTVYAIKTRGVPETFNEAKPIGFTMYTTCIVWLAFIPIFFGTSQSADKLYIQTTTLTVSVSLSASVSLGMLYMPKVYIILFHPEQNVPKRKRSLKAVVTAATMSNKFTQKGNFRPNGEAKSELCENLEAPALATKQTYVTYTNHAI

As usually defined, the IC50 is the concentration that inhibits the measured activity by half. A high value points to weaker potency in that assay. Consider `O=C(Nc1ccc(N2C(=O)c3ccccc3C2=O)cc1)c1ccccn1` [Example 1, N-[4-(1,3-dioxo-1,3-dihydro-2H-isoindol-2-yl)phenyl]pyridine-2-carboxamide], for which, in experiment [1], the Emax turned out to be 52% and the EC50 was 341 nM. Further, in experiment [2], the IC50 came to 712 nM.
The like results for `Cc1cc(NC(=O)c2ccccn2)ccc1N1C(=O)c2ccccc2C1=O` [Example 3, N-[4-(1,3-dioxo-1,3-dihydro-2H-isoindol-2-yl)-3-methylphenyl]pyridine-2-carboxamide] were, in that order, 104%, 390 nM and 1720 nM.
Consider `O=C(Nc1ccc(N2C(=O)c3cccc(F)c3C2=O)c(Cl)c1)c1ccccn1` [Example 10, N-[3-chloro-4-(4-fluoro-1,3-dioxo-1,3-dihydro-2H-isoindol-2-yl)phenyl]pyridine-2-carboxamide], for which, in experiment [1], the Emax stood at 110% and the EC50 came out at 50.4 nM.
On to `Cc1cccc2c1C(=O)N(c1ccc(NC(=O)c3ccccn3)cc1Cl)C2=O` [Example 13, N-[3-chloro-4-(4-methyl-1,3-dioxo-1,3-dihydro-2H-isoindol-2-yl)phenyl]pyridine-2-carboxamide], for which, in experiment [1], the Emax was determined as 125% and the EC50 worked out at 43.6 nM.
Regarding `Cc1cccc2c1C(=O)N(c1ccc(NC(=O)c3ccccn3)cc1Br)C2=O` [Example 29, N-[3-bromo-4-(4-methyl-1,3-dioxo-1,3-dihydro-2H-isoindol-2-yl)phenyl]pyridine-2-carboxamide], in experiment [1], the Emax is 109% and the EC50 worked out at 101 nM. The molecule also came in with an IC50 in experiment [2] of 12 nM.
